Data as given in ChEMBL document CHEMBL5143580, “Ophiorrhines F and G, Key Biogenetic Intermediates of Ophiorrhine Alkaloids from Ophiorrhiza japonica and Their Immunosuppressant Activities” (J Nat Prod, 2022).

Legend:
[1] = system: Splenocyte; assay: Immunosuppressive activity in BALB/c mouse Splenocyte assessed as inhibition of LPS induced B-cell proliferation by [3H]-thymidine incorporation based beta scintillation counter analysis; type: functional
[2] = Cytotoxicity in BALB/c mouse Splenocyte assessed as reduction in cell viability incubated for 48 hrs by CCK-8 assay; type: toxicity, cell-based; details: splenocytes
[3] = system: Splenocyte; assay: Immunosuppressive activity in BALB/c mouse Splenocyte assessed as inhibition of concanavalin A induced T-cell proliferation by [3H]-thymidine incorporation based beta scintillation counter analysis; type: functional
[4] = Selectivity index, ratio of CC50 for BALB/c mouse Splenocyte to IC50 for Immunosuppressive activity in BALB/c mouse Splenocyte assessed as inhibition of LPS-induced B-cell proliferation; type: toxicity; details: splenocytes, read-out: Ratio CC50/IC50
[5] = Selectivity index, ratio of CC50 for BALB/c mouse Splenocyte to IC50 for Immunosuppressive activity in BALB/c mouse Splenocyte assessed as inhibition of concanavalin A-induced T-cell proliferation; type: toxicity; details: splenocytes, read-out: Ratio CC50/IC50

C=C[C@H]1[C@H](O[C@@H]2O[C@H](CO)[C@@H](O)[C@H](O)[C@H]2O)OC=C(C(=O)OC)[C@H]1CC(=O)c1[nH]c2ccccc2c1CC(=O)NC
IC50 [1]: 47.4 µM | CC50 at 48 h [2]: 170 µM | IC50 [3]: > 200 µM | selectivity ratio [4]: 3.59 | selectivity ratio [5]: < 0.85

C=C[C@H]1[C@H](O[C@@H]2O[C@H](CO)[C@@H](O)[C@H](O)[C@H]2O)OC=C(C(=O)OC)[C@H]1CC(=O)c1[nH]c2ccccc2c1[C@H](OC)C(=O)NC
IC50 [1]: < 0.38 µM | CC50 at 48 h [2]: 208 µM | IC50 [3]: > 200 µM | selectivity ratio [4]: > 548 | selectivity ratio [5]: < 1.04
